The numbers were not newly measured in patent US20070060557A1, “Superoxide dismutase mimics for the treatment of optic nerve and retinal damage” (priority 2003, published 2007), which cites them from elsewhere.

Molecules are shown by their SMILES.

Data set [1] concerns light-induced retinal damage in albino rats. The conditions noted are these: albino rats (Wang et al. 1995).
For data set [2], the system named is rat ocular ischemia-reperfusion model. The conditions noted are these: intravitreal injections (Rios et al. 1999).

In the case of `CC1(C)CC(O)CC(C)(C)N1[O]` [4-hydroxy-2,2,6,6-tetramethylpiperidine-1-oxyl], the light-induced retinal damage entry in data set [1] is recorded as “inhibited light-induced retinal damage”. As for `CNC(=S)NC` [dimethylthiourea], the functional protection in data set [2] is reported as 40%.
